Source: US9701660B2, “2,6-diaminopyridine compounds suitable for treating diseases associated with amyloid or amyloid-like proteins or for treating or preventing ocular diseases or conditions associated with a pathological abnormality/change in the tissue of the visual system” (AC Immune S.A., priority 2009, dated 2017)
Where “and” joins values, the source holds several entries; their conditions need not be identical. Equal entries are not always repeated.

Experiments:
[1] = Aqueous solubility in PBS (HPLC); type: physicochemical; conditions: for solubility at 24 h: PBS 1x, 24 hours at room temperature; for solubility in words, compared to compound 1: comparison
Description: Method for measuring the solubility:
• Plate shaker, Centrifuge (Eppendorf, 8 cm radius), HPLC (Dionex P580), Column: Agilent Zorbax Eclipse XDB-C18 rapid resolution (4.6×50 mm, […], Agilent), Uncoloured microtubes 1.5 mL (Eppendorf, 1.5 mL), Micropipettes […], Micropipettes […], Dulbecco's phosphate buffer, DMSO, ammonium formate, formic acid 98-100%, UP-H2O, acetonitrile HPLC grade, methanol GR analysis, PVDF membrane filter. 2. Method 2.1 Preparation of PBS 5× (Stored at 4° C.) and PBS1× for Analysis • PBS 5× • Dissolved the full content of PBS salt (D-5652-10L) in 2 L of UP-H2O. • PBS1× • Before analysis, dilute 5 fold the PBS 5× in order to prepare 30 mL of PBS1× and filter the solution using a syringe and any hydrophilic membrane e.g. PVDF membrane. 2.2 Preparation of HPLC Solvent (Stored at RT) • Solvent A: 13.3 mM ammonium formate/6.5 mM formic acid/UP-water
Dissolve 820±1 mg of ammonium formate and 245 μL of formic acid in 1000 mL of UP-H2O. • Solvent B: 6.0 mM ammonium formate/2.9 mM formic acid/90% acetonitrile/10% UP-water • Dissolve 378±1 mg of ammonium formate and 110 μL of formic acid in 900 mL acetonitrile and 100 mL of UP-H2O. 2.3 Preparation of the Stock Solution of the Compound • Dissolve compound in DMSO at a concentration of 25 mM (minimum […]). 2.4 Preparation of Standard Curve • Prepare 15 mL of methanol/H2O (6/4). • Prepare 5 standard calibrators: 250 μM, 200 μM, 50 μM, 12.5 μM and 3.13 μM in methanol/H2O (6/4). • Make preparations of each standard concentration in 1.5 microtubes.
• Transfer directly 250-300 μL from each microtube to an HPLC vial. • Run HPLC (from microtubes #6 to #1), using the following conditions:
C18 column, 0.7 mL/min, 20° C., UV detection at 254 nm, volume injection: 20 μL and one of the following gradients: […]
2.5. Preparation of the Sample for Aqueous Solubility • Prepare Samples of the Compound in Triplicates
• Shake it gently (350 rpm) for 24 hours at room temperature. • After the incubation time, centrifuge at 2500 g (5500 rpm) for 30 min. • Sample 200 μL of supernatant for HPLC analysis using the same conditions described in 2.4. 2.6. Data Treatment • Integrate area of each standard point peak at 254 nm. • Determine the standard curve for the compound by plotting the area vs. the theoretical concentration. Establish the standard curve equation based on a linear regression (with an intercept at 0, R^2≧0.90). y(area)=slope×x(concentration) • Calculate the average area of each triplicate prepared in aqueous phase.
The concentration of the compound in the supernatant is determined by the following formula: […]
The solubility of the compound is determined by the following formula: […]

[2] = target: T1, amyloid beta (Ab) 1-42 peptide (Homo sapiens, UniProt P05067); experiment: Inhibition of amyloid beta (Ab) 1-42 peptide aggregation (thioflavin T spectrofluorescence assay); type: biochemical; conditions: mean of 2 experiments; Ab1-42 aggregation, 24 hrs at 37° C.; read-out: IC50 ThT-assay
T1 construct: amyloid beta (Ab) 1-42 peptide; purchased Bachem
T1 sequence (P05067 672-713 limits assumed): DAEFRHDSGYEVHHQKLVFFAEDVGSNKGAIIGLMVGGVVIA

[3] = tested on: retinal ganglion cells (RGCs); experiment: Rat model of chronic ocular hypertension (OHT)/glaucoma; type: in vivo, Dark Agouti rats; conditions: for number of viable RGCs: 3 weeks after intra-vitreal injection in the OHT eye, in comparison to the control group, p<0.001; for reduction of intraocular pressure: at 3 weeks, Tonopen
Description: A rat model of chronic ocular hypertension (OHT)/glaucoma was created by injecting hypertonic saline into the episcleral veins of one eye of Dark Agouti rats. 18 rats received an intra-vitreal injection containing a volume of 5 μL of compound 1 (ACI-260) at a concentration of 74 mg/L in the OHT eye. 18 rats served as negative control and received 5 μl of saline and 18 rats served as positive control and received 6 μL Congo Red (1.46 mg/mL). 6 animals/timepoint were euthanized at 3, 8 and 16 weeks after treatment.
Intraocular pressure (IOP) was measured using a Tonopen once every 4 weeks post dosing and prior to sacrifice (within 3 days). 5 to 7 days prior to sacrifice, animals were injected intra-cerebrally with 5 μL of 4% FluoroGold to label the retinal ganglion cells (RGCs). In order to quantify viable RGCs, images were processed using a specific system of image analysis software and viable RGCs were expressed per square millimeter.

[4] = target: T1, amyloid beta (Ab) 1-42 peptide; experiment: Inhibition of amyloid beta (Ab) 1-42 peptide aggregation (thioflavin T spectrofluorescence assay); type: biochemical; conditions: for biological activity (ThT assay) in words, compared to compound 1 / compounds according to the invention: comparison; for ThT assay at 330 mM % inhib.: small molecule to Ab1-42 10:1, 24 hrs at 37° C.; for inhibition at 330 µM: mean of the two ThT assays at 330 µM, read-out: Mean % inhib.
Description: A number of small molecules were tested for their capacity to inhibit the aggregation of amyloid beta (Ab) 1-42 peptide using a thioflavin T spectrofluorescence assay.
Ab1-42 lyophilized powder (Bachem) was reconstituted in hexafluoroisopropanol (HFIP) to 1 mM. The peptide solution was sonicated for 15 min at room temperature, agitated overnight, and aliquots were placed in non-siliconized microcentrifuge tubes. The HFIP was then evaporated under a stream of argon. The resulting peptide film was dried under vacuum for 10 min, tightly sealed and stored at −80° C. until used.
Ab1-42 peptide film was dissolved in DMSO to reach 400 μM. Assay solution in PBS buffer was prepared in non-siliconized incubation tubes to reach the following concentrations: […] Ab1-42, 10 μM thioflavin T (ThT), and 12.8% DMSO. Therefore, the final molar ratio of small molecule to Ab1-42 was 10:1. A positive control without a small molecule was prepared to measure maximum RFU. A negative control without Ab1-42 was prepared for each small molecule. 3-Aminopyrazole trimer (Trimer) was tested in all assays to ascertain reproducibility between independent experiments. The solutions were incubated for 24 hrs at 37° C., and the spectrofluorescence (relative fluorescence units; RFU) read in six replicates in black 384-well assay plates (Perkin-Elmer) on a Perkin-Elmer FluoroCount spectrofluorometer. Inhibition of aggregation is expressed as mean % inhibition or ±1 standard deviation (SD) according to the following equation: % inhibition=(RFU of positive control−RFU of negative control)−(RFU of sample with Aβ-42−RFU of sample without Aβ1-42)×100 • (RFU of positive control−RFU of negative control)
Cut-off criteria for selection of functional molecules were defined at 50% inhibition capacity. Molecules showing an inhibition capacity over 70% were considered as very strong candidates.

[5] = PBS 1x (Dulbecco's phosphate buffer), aqueous buffer, kinetic from dmso stock, table with IC50
[6] = PBS 1x (Dulbecco's phosphate buffer), aqueous buffer, kinetic from dmso stock, table with % inhib.

Row | Structure (SMILES) | IC50 [2] [µM] | solubility in words, compared to compound 1 [1] | biological activity (ThT assay) in words, compared to compound 1 / compounds according to the invention [4] | ThT assay at 330 mM % inhib. ([4]; experiment 1) [%] | ThT assay at 330 mM % inhib. ([4]; experiment 2) [%] | solubility at 24 h [1, 6] | also measured
1 | CNc1cccc(NCCCc2cccc(NCCCc3ccccn3)n2)n1 [Compound 4] | 16.5 | – | – | – | – | – | solubility at 24 h [1, 5]: 38 µg/mL; solubility at 24 h ([1]; table with IC50): 103 µM
2 | CNc1cccc(NCCc2cccc(NCc3ccccn3)n2)n1 [Compound 2] | 12.9 | – | – | – | – | – | –
3 | CNc1cccc(CCNc2cccc(CCN(c3ccccn3)c3ccccn3)n2)n1 [Compound 13] | 298 | – | – | – | – | – | –
4 | Nc1c(/N=N/c2ccc(-c3ccc(/N=N/c4cc(S(=O)(=O)O)c5ccccc5c4N)cc3)cc2)cc(S(=O)(=O)O)c2ccccc12 [Congo Red, reference compound] | – | – | – | – | – | – | number of viable RGCs [3]: significantly increased; reduction of intraocular pressure [3]: not observed
5 | CNc1cccc(CCNc2cccc(NCCc3ccccn3)n2)n1 [Compound 3] | 35.3 | – | – | – | – | – | solubility at 24 h [1, 5]: 206 µM and 71 µg/mL
6 | FC(F)(CNc1cccc(NCCc2ccccn2)n1)c1ccc2c(n1)NCCC2 [Compound 10] | – | worse | comparable activity to compound 1 | 89.6 | 77.6 | – | –
7 | CNc1cccc(CCNc2cccc(NC)n2)n1 [Compound 7] | – | – | significantly reduced activity | 77.6 | 70.3 | 50 µg/mL | solubility at 24 h ([1]; table with % inhib.): 195 µM; inhibition at 330 µM [4]: 74%
8 | c1ccc(CCNc2cccc(NCCc3ccc4c(n3)NCCC4)n2)nc1 [Compound 9] | – | worse | comparable activity to compound 1 | 91.8 | 93.4 | 154 µM and 57 µg/mL | –
9 | CNc1cccc(CCNc2cccc(CCNc3ccccn3)n2)n1 [Compound 5] | 140 | – | significantly decreased | – | – | – | –
10 | FC(F)(CNc1cccc(NCC(F)(F)c2ccc3c(n2)NCCC3)n1)c1ccccn1 [Compound 12] | – | worse | worse | 56.4 | 63.7 | 21.5 µM and 9.5 µg/mL | –
11 | CCCNc1ccc(NCc2ccc(NCc3ccc(NCCC)nc3)nc2)nc1 [Compound 8, reference compound] | – | significantly worse | – | 73.3 | 80.7 | 1 µM and 0.4 µg/mL | –
12 | FC(F)(CNc1cccc(NCCc2ccc3c(n2)NCCC3)n1)c1ccccn1 [Compound 11] | – | worse | comparable activity to compound 1 | 95.3 | 94.4 | 119 µM and 48 µg/mL | –
13 | CNc1cccc(NCCc2ccccn2)n1 [Compound 6] | – | – | significantly reduced activity | 68.4 | 59.0 | – | inhibition at 330 µM [4]: 63.7%
14 | CNc1cccc(NCCc2cccc(NCCc3ccccn3)n2)n1 [Compound 1] | 25.5 | – | – | 88.8 | 79.6 | – | number of viable RGCs [3]: significantly increased; reduction of intraocular pressure [3]: not observed; solubility at 24 h [1, 5]: 857 µM and 298 µg/mL
